Test results as given in ChEMBL document CHEMBL5154652, “Design, synthesis and anti-hepatocellular carcinoma activity of 3-arylisoquinoline alkaloids” (Eur J Med Chem, 2022).
Activity calls are given as the source filed them. The rule behind the calls is not given here.

Assays:
HCCLM9 [1] = assay: Inhibition of cell invasion in human HCCLM9 cells at 1.25 to 5 uM after 24 hrs; type: functional, cell-based; details: dose 1.25-5 µM
Huh-7 [2] = assay: Induction of cell cycle arrest in human Huh-7 cells assessed as increase in cell accumulation at G2/M phase at 5 to 20 uM measured after 48 hrs by flow cytometry analysis; type: functional, cell-based; details: dose 5-20 µM
[3] = Genotoxicity in human HCCLM9 cells assessed as induction of DNA damage at 20 uM by comet assay; type: toxicity, cell-based; details: hcclm9, 20 µM
SW480 = assay: Antiproliferative activity against human SW480 cells after 72 hrs by MTT assay; type: functional, cell-based; details: SW480, 72 h
HL-60 = assay: Antiproliferative activity against human HL-60 cells after 72 hrs by MTT assay; type: functional, cell-based; details: HL-60, 72 h
[4] = biological target: DNA topoisomerase 2-alpha (Homo sapiens) (UniProt P11388); assay: Inhibition of DNA topoisomerase 2 (unknown origin) at 25 uM measured by agar gel electrophoresis relative to control
Chain of DNA topoisomerase 2-alpha (Homo sapiens) (P11388 whole entry): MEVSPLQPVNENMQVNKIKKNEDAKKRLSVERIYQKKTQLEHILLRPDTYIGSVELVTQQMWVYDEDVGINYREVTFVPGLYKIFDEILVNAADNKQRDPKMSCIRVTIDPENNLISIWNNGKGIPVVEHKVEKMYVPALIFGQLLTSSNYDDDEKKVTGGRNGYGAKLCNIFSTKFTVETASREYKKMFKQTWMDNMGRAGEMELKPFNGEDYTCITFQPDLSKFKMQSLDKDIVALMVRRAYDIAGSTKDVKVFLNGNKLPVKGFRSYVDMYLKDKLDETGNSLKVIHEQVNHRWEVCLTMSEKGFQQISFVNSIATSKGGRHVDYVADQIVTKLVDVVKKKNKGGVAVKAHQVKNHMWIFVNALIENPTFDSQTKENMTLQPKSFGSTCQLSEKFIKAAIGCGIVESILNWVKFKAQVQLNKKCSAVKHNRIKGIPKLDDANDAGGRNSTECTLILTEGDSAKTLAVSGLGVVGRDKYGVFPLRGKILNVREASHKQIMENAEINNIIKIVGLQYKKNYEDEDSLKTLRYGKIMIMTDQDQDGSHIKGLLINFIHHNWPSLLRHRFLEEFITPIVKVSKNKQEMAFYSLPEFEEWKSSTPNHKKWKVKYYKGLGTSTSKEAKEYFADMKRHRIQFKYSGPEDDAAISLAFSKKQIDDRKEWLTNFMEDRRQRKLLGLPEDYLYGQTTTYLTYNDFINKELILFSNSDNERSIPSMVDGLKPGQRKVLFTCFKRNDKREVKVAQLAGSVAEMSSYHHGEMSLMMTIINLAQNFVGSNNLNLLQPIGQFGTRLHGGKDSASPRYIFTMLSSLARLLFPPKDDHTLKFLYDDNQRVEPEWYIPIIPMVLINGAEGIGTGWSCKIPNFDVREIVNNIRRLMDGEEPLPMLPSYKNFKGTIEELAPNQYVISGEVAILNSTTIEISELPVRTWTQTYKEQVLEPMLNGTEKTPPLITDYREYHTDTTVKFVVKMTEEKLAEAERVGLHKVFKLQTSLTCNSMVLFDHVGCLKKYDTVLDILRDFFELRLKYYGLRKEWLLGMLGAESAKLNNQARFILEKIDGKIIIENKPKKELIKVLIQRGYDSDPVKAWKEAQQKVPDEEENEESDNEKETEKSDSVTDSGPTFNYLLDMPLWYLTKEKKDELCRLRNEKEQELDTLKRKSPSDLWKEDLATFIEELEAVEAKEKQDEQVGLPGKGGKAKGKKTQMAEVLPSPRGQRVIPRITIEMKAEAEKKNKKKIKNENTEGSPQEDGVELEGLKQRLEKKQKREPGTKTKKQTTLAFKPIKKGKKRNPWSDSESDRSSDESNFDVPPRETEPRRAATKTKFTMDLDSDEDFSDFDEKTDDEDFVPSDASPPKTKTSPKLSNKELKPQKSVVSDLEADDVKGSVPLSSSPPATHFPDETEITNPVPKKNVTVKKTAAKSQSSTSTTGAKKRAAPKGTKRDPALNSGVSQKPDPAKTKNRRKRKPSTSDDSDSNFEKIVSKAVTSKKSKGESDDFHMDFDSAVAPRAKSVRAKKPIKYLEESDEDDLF

HCCLM9 [5] = assay: Induction of cell cycle arrest in human HCCLM9 cells assessed as decrease in cell accumulation at G0/G1 phase at 3.75 to 15 uM measured after 48 hrs by flow cytometry analysis; type: functional, cell-based; details: dose 3.75-15 µM
Huh-7 [6] = assay: Induction of mitochondrial apoptosis in human Huh-7 cells assessed as inhibition of p-mTOR levels at 5 to 20 uM measured after 48 hrs by Western blot analysis; type: functional, cell-based; details: dose 5-20 µM
SK-HEP1 = assay: Antiproliferative activity against human SK-HEP1 cells after 72 hrs by MTT assay; type: functional, cell-based; details: SK-HEP1, 72 h
Huh-7 [7] = assay: Induction of mitochondrial apoptosis in human Huh-7 cells assessed as inhibition of p-PI3K levels at 5 to 20 uM measured after 48 hrs by Western blot analysis; type: functional, cell-based; details: dose 5-20 µM
HCCLM9 [8] = assay: Induction of mitochondrial apoptosis in human HCCLM9 cells assessed as inhibition of p-mTOR levels at 3.75 to 15 uM measured after 48 hrs by Western blot analysis; type: functional, cell-based; details: dose 3.75-15 µM
[9] = Half-life in male Sprague-Dawley rat at 100 mg/kg, ip; type: ADME, organism-based; details: in vivo
[10] = Observed apparent oral clearance in male Sprague-Dawley rat at 100 mg/kg, ip; type: ADME, organism-based; details: in vivo
Huh-7 [11] = assay: Induction of apoptosis in human Huh-7 cells at 5 to 20 uM measured by Hoechst staining method; type: functional, cell-based; details: dose 5-20 µM
[12] = Toxicity in male BALB/c nude mouse xenografted with human HCCLM9 cells assessed as effect on body weight at 15 mg/kg, iv administered once a day for 21 days; type: organism-based; details: in vivo, 504 h, time 21 day
HCCLM9 [13] = assay: Induction of apoptosis in human HCCLM9 cells at 3.5 to 14 uM measured by Annexin V /propidium iodide staining method; type: functional, cell-based; details: dose 3.5-14 µM
Huh-7 [14] = assay: Antiproliferative activity against human Huh-7 cells after 72 hrs by MTT assay; type: functional, cell-based; details: Huh-7, 72 h
Huh-7 [15] = assay: Induction of cell cycle arrest in human Huh-7 cells assessed as decrease in cell accumulation at G0/G1 phase at 5 to 20 uM measured after 48 hrs by flow cytometry analysis; type: functional, cell-based; details: dose 5-20 µM
[16] = AUC (0 to t) in male Sprague-Dawley rat at 100 mg/kg, ip; type: ADME, organism-based; design: dose 100 mg/kg, route ip; details: in vivo
HCCLM9 [17] = assay: Induction of cell cycle arrest in human HCCLM9 cells assessed as decrease in cell accumulation at S phase at 3.75 to 15 uM measured after 48 hrs by flow cytometry analysis; type: functional, cell-based; details: dose 3.75-15 µM
[18] = Cmax in male Sprague-Dawley rat at 100 mg/kg, ip; type: ADME, organism-based; design: dose 100 mg/kg, route ip; details: in vivo
Huh-7 [19] = assay: Induction of mitochondrial dysfunction in human Huh-7 cells assessed as decrease in MMP levels at 5 to 20 uM; type: functional, cell-based; details: dose 5-20 µM
[20] = MRT (0 to t)in male Sprague-Dawley rat at 100 mg/kg, ip; type: ADME, organism-based; details: in vivo
HCCLM9 [21] = assay: Induction of apoptosis in human HCCLM9 cells assessed as increase in cleaved caspase-3 expression at 3.75 to 15 uM; type: functional, cell-based; details: dose 3.75-15 µM
HCCLM9 [22] = assay: Antiproliferative activity against human HCCLM9 cells after 72 hrs by MTT assay; type: functional, cell-based; details: HCCLM9, 72 h
Huh-7 [23] = assay: Inhibition of cell invasion in human Huh-7 cells at 2 to 8 uM after 24 hrs; type: functional, cell-based; details: dose 2-8 µM
HCCLM9 [24] = assay: Antiproliferative activity against human HCCLM9 cells at 1.25 to 5 uM after 24 hrs by EdU incorporation assay; type: functional, cell-based; details: dose 1.25-5 µM
[25] = biological target: DNA topoisomerase 1 (Homo sapiens) (UniProt P11387); assay: Inhibition of DNA topoisomerase 1 (unknown origin) at 25 to 50 uM measured by agar gel electrophoresis relative to control; details: dose 25-50 µM
Chain of DNA topoisomerase 1 (Homo sapiens) (P11387 whole entry): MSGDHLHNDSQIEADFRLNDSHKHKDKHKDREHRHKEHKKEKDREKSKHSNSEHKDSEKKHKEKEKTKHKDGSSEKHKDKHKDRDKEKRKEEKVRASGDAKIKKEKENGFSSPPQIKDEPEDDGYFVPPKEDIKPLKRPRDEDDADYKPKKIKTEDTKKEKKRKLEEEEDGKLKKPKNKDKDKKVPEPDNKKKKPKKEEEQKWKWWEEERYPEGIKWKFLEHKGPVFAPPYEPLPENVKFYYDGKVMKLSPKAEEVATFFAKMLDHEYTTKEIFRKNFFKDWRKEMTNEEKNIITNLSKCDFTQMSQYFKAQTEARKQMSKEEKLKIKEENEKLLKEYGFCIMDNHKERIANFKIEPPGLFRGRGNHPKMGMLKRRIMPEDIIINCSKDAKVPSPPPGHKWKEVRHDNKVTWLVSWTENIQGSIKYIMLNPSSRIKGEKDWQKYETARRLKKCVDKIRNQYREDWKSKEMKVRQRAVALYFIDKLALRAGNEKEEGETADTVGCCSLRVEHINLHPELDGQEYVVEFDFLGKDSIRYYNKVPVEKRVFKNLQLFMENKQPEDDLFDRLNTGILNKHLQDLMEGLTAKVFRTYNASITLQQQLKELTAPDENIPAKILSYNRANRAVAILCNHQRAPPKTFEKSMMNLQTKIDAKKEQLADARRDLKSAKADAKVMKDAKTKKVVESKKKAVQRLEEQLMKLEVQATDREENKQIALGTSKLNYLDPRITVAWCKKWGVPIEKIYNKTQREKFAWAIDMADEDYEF

HCT-116 = assay: Antiproliferative activity against human HCT-116 cells after 72 hrs by MTT assay; type: functional, cell-based; details: HCT-116, 72 h
Huh-7 [26] = assay: Inhibition of MMP-9 expression in human Huh-7 cells at 5 to 20 uM measured by western blot analysis; type: functional, cell-based; details: dose 5-20 µM
HCCLM9 [27] = assay: Inhibition of MMP-9 expression in human HCCLM9 cells at 3.75 to 15 uM measured by western blot analysis; type: functional, cell-based; details: dose 3.75-15 µM
BGC-823 = assay: Antiproliferative activity against human BGC-823 cells after 72 hrs by MTT assay; type: functional, cell-based; details: BGC-823, 72 h
Huh-7 [28] = assay: Induction of apoptosis in human Huh-7 cells assessed as reduction in Bcl-2 expression at 5 to 20 uM; type: functional, cell-based; details: dose 5-20 µM
HCCLM9 [29] = assay: Induction of apoptosis in human HCCLM9 cells assessed as increase in Bax expression at 3.75 to 15 uM; type: functional, cell-based; details: dose 3.75-15 µM
HCCLM9 [30] = assay: Induction of cell cycle arrest in human HCCLM9 cells assessed as increase in cell accumulation at G2/M phase at 3.75 to 15 uM measured after 48 hrs by flow cytometry analysis; type: functional, cell-based; details: dose 3.75-15 µM
DNA = assay: Binding affinity to DNA (unknown origin) assessed as DNA intercalation at 100 uM measured by unwinding assay relative to control; type: nucleic-acid assay; details: Homo sapiens
RKO = assay: Antiproliferative activity against human RKO cells after 72 hrs by MTT assay; type: functional, cell-based
MCF7 = assay: Antiproliferative activity against human MCF7 cells after 72 hrs by MTT assay; type: functional, cell-based; details: MCF7, 72 h
HCCLM9 [31] = assay: Anticlonogenic activity in human HCCLM9 cells at 1.25 to 5 uM measured by colony formation assay; type: functional, cell-based; details: dose 1.25-5 µM
HCCLM9 [32] = assay: Induction of mitochondrial apoptosis in human HCCLM9 cells assessed as inhibition of p-PI3K levels at 3.75 to 15 uM measured after 48 hrs by Western blot analysis; type: functional, cell-based; details: dose 3.75-15 µM
Huh-7 [33] = assay: Induction of apoptosis in human Huh-7 cells assessed as increase in Bax expression at 5 to 20 uM; type: functional, cell-based; details: dose 5-20 µM
HCCLM9 [34] = assay: Induction of apoptosis in human HCCLM9 cells at 3.5 to 14 uM measured by Hoechst staining method; type: functional, cell-based; details: dose 3.5-14 µM
Huh-7 [35] = assay: Anticlonogenic activity in human Huh-7 cells at 2 to 8 uM measured by colony formation assay; type: functional, cell-based; details: dose 2-8 µM
U-251 = assay: Antiproliferative activity against human U-251 cells after 72 hrs by MTT assay; type: functional, cell-based; details: U-251, 72 h
HT-29 = assay: Antiproliferative activity against human HT-29 cells after 72 hrs by MTT assay; type: functional, cell-based; details: HT-29, 72 h

IC50 (SW480): 9.04 µM | IC50 (HL-60): 59.1 µM | inhibition [4]: Active | IC50 (SK-HEP1): 16.5 µM | half-life [9]: 3.73 h | CL/F [10]: 20.42 (mg)/(ug/ml)/hr | IC50 (Huh-7 [14]): 9.82 µM | AUC(0-t) [16]: 31600 ng·h/mL | Cmax [18]: 8900 ng/mL | MRT last [20]: 1 h | IC50 (HCCLM9 [22]): 6.83 µM | inhibition [25]: Active | IC50 (HCT-116): 64 µM | IC50 (BGC-823): 17.7 µM | Activity (DNA): Active | IC50 (MCF7): 22.4 µM | IC50 (U-251): 13.5 µM | IC50 (HT-29): 31 µM
SMILES: CNCc1cc2c(cc1-c1cc3ccc4c(c3cn1)OCO4)OCO2
inhibition (HCCLM9 [1]): Active | Activity (Huh-7 [2]): Active | Activity [3]: Non-Toxic | Activity (HCCLM9 [5]): Active | Activity (Huh-7 [6]): Active | Activity (Huh-7 [7]): Active | Activity (HCCLM9 [8]): Active | Activity (Huh-7 [11]): Active | Activity [12]: Non-Toxic | Activity (HCCLM9 [13]): Active | Activity (Huh-7 [15]): Active | Activity (HCCLM9 [17]): Active | Activity (Huh-7 [19]): Active | Activity (HCCLM9 [21]): Active | inhibition (Huh-7 [23]): Active | Activity (HCCLM9 [24]): Active | inhibition (Huh-7 [26]): Active | inhibition (HCCLM9 [27]): Active | Activity (Huh-7 [28]): Active | Activity (HCCLM9 [29]): Active | Activity (HCCLM9 [30]): Active | IC50 (RKO): 47.8 µM | Activity (HCCLM9 [31]): Active | Activity (HCCLM9 [32]): Active | Activity (Huh-7 [33]): Active | Activity (HCCLM9 [34]): Active | Activity (Huh-7 [35]): Active
